In PubChem BioAssay (NCI):
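Tested at 5 concentrations; 48 h exposure; 96-well plates; endpoints linearly interpolated, else capped at highest concentration. TGI denotes the concentration required for complete inhibition of growth.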

What was measured:
Assay in all cases: inhibition of tumour cell growth, NCI panel, 48 h
HCT-15 colon = tested on: HCT-15 colon
LOX IMVI melanoma = tested on: LOX IMVI melanoma
CAKI-1 renal = tested on: CAKI-1 renal
M14 melanoma = tested on: M14 melanoma
HOP-92 NSCLC = tested on: HOP-92 NSCLC
UO-31 renal = tested on: UO-31 renal
NCI-H226 lung = tested on: NCI-H226 lung
TK-10 renal = tested on: TK-10 renal
U251 CNS = tested on: U251 CNS
MALME-3M melanoma = tested on: MALME-3M melanoma
IGROV1 ovarian = tested on: IGROV1 ovarian
COLO 205 colon = tested on: COLO 205 colon
T-47D breast = tested on: T-47D breast
EKVX NSCLC = tested on: EKVX NSCLC
SNB-19 CNS = tested on: SNB-19 CNS
HT29 colon = tested on: HT29 colon
SK-MEL-28 melanoma = tested on: SK-MEL-28 melanoma
PC-3 prostate = tested on: PC-3 prostate
RXF 393 renal = tested on: RXF 393 renal

Compound	TGI (HCT-15 colon)	TGI (LOX IMVI melanoma)	TGI (CAKI-1 renal)	TGI (M14 melanoma)	TGI (HOP-92 NSCLC)	TGI (UO-31 renal)	TGI (NCI-H226 lung)	TGI (TK-10 renal)	TGI (U251 CNS)	TGI (MALME-3M melanoma)	TGI (IGROV1 ovarian)	TGI (COLO 205 colon)	TGI (T-47D breast)	TGI (EKVX NSCLC)	TGI (SNB-19 CNS)	TGI (HT29 colon)	TGI (SK-MEL-28 melanoma)	TGI (PC-3 prostate)	TGI (RXF 393 renal)
CO/C(=N\N=C\c1ccc(OC)c(OC)c1)c1ccncc1	> 10 µM	> 10 µM	> 10 µM	> 10 µM	> 10 µM	> 10 µM	> 10 µM	> 10 µM	> 10 µM	> 10 µM	> 10 µM	> 10 µM	> 10 µM	> 10 µM	–	–	–	–	–
O=C(NC1CCCCC1NC(c1ccccc1)(c1ccccc1)c1ccccc1)C(=O)NC1CCCCC1NC(c1ccccc1)(c1ccccc1)c1ccccc1 (stereo unspecified)	> 100 µM	> 100 µM	> 100 µM	–	60.5 µM	> 100 µM	> 100 µM	> 100 µM	57.4 µM	> 100 µM	> 100 µM	> 100 µM	> 100 µM	> 100 µM	> 100 µM	> 100 µM	> 100 µM	> 100 µM	–
COC1/C=C/C(C)C(C(C)C(OC)C(C)CCC(=O)C(C)C(C/C=C/N(C)C=O)OC)OC(=O)C=CC2OC2(C)CC(OC)C(OC)C2=CC(=O)O[C@@H](C(C)C(OC)CC(OC)/C=C/C(C)C(O)C1)[C@H]2O (stereo partly specified)	–	0.00617 µM	0.0203 µM	0.00985 µM	0.0235 µM	0.00831 µM	0.0164 µM	0.0304 µM	0.0416 µM	0.854 µM	0.00369 µM	–	–	0.0163 µM	0.0316 µM	0.0108 µM	–	0.0297 µM	0.0473 µM
Cc1ccccc1-n1c(=O)c2ncn(C3CCCO3)c2n(-c2ccccc2C)c1=S (stereo unspecified)	> 100 µM	> 100 µM	> 100 µM	> 100 µM	> 100 µM	> 100 µM	> 100 µM	> 100 µM	–	> 100 µM	> 100 µM	> 100 µM	> 100 µM	> 100 µM	> 100 µM	> 100 µM	–	–	> 100 µM
CC1=NC(=Cc2cccc(Cl)c2)C(=O)N1n1c(-c2ccccc2)nc2ccccc2c1=O	> 100 µM	55.2 µM	87.6 µM	> 100 µM	–	> 100 µM	> 100 µM	> 100 µM	–	82.1 µM	> 100 µM	> 100 µM	69 µM	> 100 µM	> 100 µM	94.8 µM	–	> 100 µM	–
C/C(=N\Nc1ccc([N+](=O)[O-])cc1[N+](=O)[O-])c1sc(-n2nc(-c3ccccc3)cc2-c2ccccc2)nc1C	> 100 µM	63.9 µM	> 100 µM	> 100 µM	77.4 µM	> 100 µM	> 100 µM	> 100 µM	> 100 µM	> 100 µM	> 100 µM	67.4 µM	> 100 µM	> 100 µM	> 100 µM	33.8 µM	> 100 µM	–	–
CN1c2ccccc2C(=O)NC12CCN(CCCC(=O)c1ccc(F)cc1)CC2	> 100 µM	–	> 100 µM	32.5 µM	> 100 µM	> 100 µM	> 100 µM	–	> 100 µM	86.5 µM	> 100 µM	30.4 µM	> 100 µM	> 100 µM	–	56.1 µM	> 100 µM	> 100 µM	> 100 µM
CCC(CCCN)Nc1cc(OC)cc2c(C)ccnc12 (stereo unspecified)	58.4 µM	31.6 µM	29.5 µM	29.3 µM	30.6 µM	25.6 µM	28.3 µM	31.7 µM	–	50.4 µM	36.6 µM	47.5 µM	–	36.3 µM	27.9 µM	28.6 µM	30.6 µM	26.2 µM	27 µM
COC(=O)[C@H](CCSC)NC(=O)N[C@H](C)c1ccccc1	> 100 µM	> 100 µM	> 100 µM	> 100 µM	> 100 µM	> 100 µM	> 100 µM	> 100 µM	> 100 µM	> 100 µM	> 100 µM	> 100 µM	–	> 100 µM	> 100 µM	> 100 µM	> 100 µM	> 100 µM	–
C=CC[C@@H](N)C(=O)N(C)[C@@H](C)[C@@H](O)c1ccccc1	> 100 µM	> 100 µM	> 100 µM	> 100 µM	> 100 µM	> 100 µM	> 100 µM	> 100 µM	> 100 µM	–	> 100 µM	> 100 µM	> 100 µM	–	> 100 µM	–	> 100 µM	> 100 µM	–
COc1cc2c(cc1OC)C1C=NC(C2)c2cc(OC)c(OC)cc21 (stereo unspecified)	> 100 µM	> 100 µM	> 100 µM	> 100 µM	> 100 µM	> 100 µM	> 100 µM	> 100 µM	> 100 µM	–	> 100 µM	> 100 µM	> 100 µM	> 100 µM	> 100 µM	> 100 µM	> 100 µM	> 100 µM	–
CCN1CCC(C)OP1(=O)Cc1ccccc1 (stereo unspecified)	> 100 µM	> 100 µM	> 100 µM	> 100 µM	–	> 100 µM	> 100 µM	> 100 µM	> 100 µM	> 100 µM	> 100 µM	> 100 µM	> 100 µM	> 100 µM	> 100 µM	> 100 µM	–	> 100 µM	–
CC1=NNC(=O)C1C1CC(c2c[nH]c3ccccc23)=NNC1=O (stereo unspecified)	> 100 µM	–	> 100 µM	> 100 µM	> 100 µM	> 100 µM	> 100 µM	> 100 µM	> 100 µM	> 100 µM	> 100 µM	> 100 µM	> 100 µM	> 100 µM	> 100 µM	> 100 µM	> 100 µM	> 100 µM	> 100 µM
O=C(NC1=C(Cl)C(=O)c2ccccc2C1=O)c1ccc(F)cc1	14.8 µM	–	–	12.5 µM	3.34 µM	–	8.37 µM	14.6 µM	12.2 µM	3.73 µM	11.5 µM	8.33 µM	4.93 µM	78.9 µM	17.3 µM	11.5 µM	18.4 µM	10.7 µM	5.4 µM
